# Results from patent US20240158446A1, “CYCLIC COMPOUND HAVING SELECTIVE INHIBITORY ACTION ON KRAS OVER HRAS AND NRAS” (CHUGAI SEIYAKU KABUSHIKI KAISHA, priority 2021, published 2024).
# Read-outs that look alike come from different tables or passages of the source. *1 amine or outer side, *2 acyl side, *3 side chain or, on linkers, in order; H or OH if unused. Where a SMILES comes first, the peptide text is derived from it. Bridges are numbered along the chain shown (N, C = ends). [ ]: non-standard residue; d: D form. The star is where a group is joined. hPhe(3-Cl-4-CF3) = N[C@@H](CCc1ccc(C(F)(F)F)c(Cl)c1)C(=O)O; NPrPhe(4-CF3) = CCCN[C@@H](Cc1ccc(C(F)(F)F)cc1)C(=O)O; X35 = COCCN([C@@H](Cc1ccc(C)cc1)C(=O)[*:2])[*:1]; NEtPhe(4-Me) = CCN[C@@H](Cc1ccc(C)cc1)C(=O)O; NMeGly(cPent) = CN[C@H](C(=O)O)C1CCCC1; Pro(4,4-F2) = O=C(O)[C@@H]1CC(F)(F)CN1; NMeD = CN[C@@H](CC(=O)O)C(=O)O; NMeL = CN[C@@H](CC(C)C)C(=O)O; Morpholide = C1CN(*)CCO1; NMeA = CN[C@@H](C)C(=O)O; Ac5c = NC1(C(=O)O)CCCC1; Aze = O=C(O)[C@@H]1CCN1; NEtG = CCNCC(=O)O; Sar = CNCC(=O)O
# How the values were obtained:
# [1] = target: GDP-bound NRAS wild-type protein (Homo sapiens, UniProt P01111); assay: Binding to NRAS by surface plasmon resonance (SPR), Single Cycle Kinetics; settings: for NRAS/KRAS (ratio of KD value for NRAS to KD value for KRAS) / NRAS/KRAS (ratio of KD value with respect to NRAS to KD value with respect to KRAS): SPR, GDP-bound NRAS wild-type protein vs GDP-bound KRAS wild-type protein; for NRAS/KRAS (ratio of KD value with respect to GDP-bound NRAS wild-type protein to KD value with respect to KRAS): SPR KD ratio NRAS/KRAS, class symbols
# [2] = target: GDP-bound HRAS wild-type protein (Homo sapiens, UniProt P01112); assay: Binding to HRAS by surface plasmon resonance (SPR), Single Cycle Kinetics; settings: for HRAS/KRAS (ratio of KD value for HRAS to KD value for KRAS) / HRAS/KRAS (ratio of KD value with respect to HRAS to KD value with respect to KRAS): SPR, GDP-bound HRAS wild-type protein vs GDP-bound KRAS wild-type protein; for HRAS/KRAS (ratio of KD value with respect to GDP-bound HRAS wild-type protein to KD value with respect to KRAS): SPR KD ratio HRAS/KRAS, class symbols
# [3] = target: GDP-bound KRAS wild-type protein (Homo sapiens, UniProt P01116); assay: Binding to KRAS by surface plasmon resonance (SPR), Single Cycle Kinetics; settings: GDP-bound KRAS wild-type protein, read-out: KRAS KD
# [4] = SPR Single Cycle Kinetics, 1:1 binding model
# Sequence of GDP-bound HRAS wild-type protein (P01112 whole entry): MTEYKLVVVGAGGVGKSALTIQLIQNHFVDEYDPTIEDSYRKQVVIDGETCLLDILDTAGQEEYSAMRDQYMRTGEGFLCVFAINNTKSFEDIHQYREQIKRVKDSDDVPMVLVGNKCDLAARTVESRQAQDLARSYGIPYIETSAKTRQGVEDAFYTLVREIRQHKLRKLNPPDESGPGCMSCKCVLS
# Sequence of GDP-bound KRAS wild-type protein (P01116 whole entry): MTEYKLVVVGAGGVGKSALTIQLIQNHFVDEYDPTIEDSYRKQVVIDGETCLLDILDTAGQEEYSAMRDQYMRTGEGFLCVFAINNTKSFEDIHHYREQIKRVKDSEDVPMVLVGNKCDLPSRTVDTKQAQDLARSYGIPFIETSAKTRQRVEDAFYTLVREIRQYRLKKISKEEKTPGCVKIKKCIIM
# Sequence of GDP-bound NRAS wild-type protein (P01111 whole entry): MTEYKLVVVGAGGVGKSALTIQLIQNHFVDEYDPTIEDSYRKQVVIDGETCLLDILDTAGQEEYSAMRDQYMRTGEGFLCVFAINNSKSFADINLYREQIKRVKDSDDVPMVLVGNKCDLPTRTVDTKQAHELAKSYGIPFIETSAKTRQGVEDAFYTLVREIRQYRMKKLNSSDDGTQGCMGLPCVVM
Compound,NRAS/KRAS (ratio of KD value for NRAS to KD value for KRAS) [1],HRAS/KRAS (ratio of KD value for HRAS to KD value for KRAS) [2],"Kd ([3]; SPR, Single Cycle Kinetics) [nM]","Kd [3, 4] [nM]",NRAS/KRAS (ratio of KD value with respect to GDP-bound NRAS wild-type protein to KD value with respect to KRAS) [1],HRAS/KRAS (ratio of KD value with respect to GDP-bound HRAS wild-type protein to KD value with respect to KRAS) [2],NRAS/KRAS (ratio of KD value with respect to NRAS to KD value with respect to KRAS) [1],HRAS/KRAS (ratio of KD value with respect to HRAS to KD value with respect to KRAS) [2]
CCO[C@@H]1C[C@H]2C(=O)NC3(CCCC3)C(=O)N(C)[C@@H](C3CCCC3)C(=O)N(C)[C@H](C(=O)N(C)C)CC(=O)N(C)[C@@H](CC(C)C)C(=O)N[C@@H]([C@@H](C)CC)C(=O)N(C)CC(=O)N(C)[C@H]3C/C=C\CCN(C3=O)[C@@H](Cc3ccc(C(F)(F)F)cc3)C(=O)N(C)CC(=O)N[C@@H](CCc3cc(F)c(Cl)c(F)c3)C(=O)N2C1 [PP2269],A (a compound having 10 or more and less than 20 is denoted as A),A (a compound having 10 or more and less than 20 is denoted as A),0.38,–,–,–,–,–
CC[C@H](C)[C@@H]1NC(=O)[C@H](CC(C)C)N(C)C(=O)C[C@@H](C(=O)N2CCOCC2)N(C)C(=O)[C@H](C2CCCC2)N(C)C(=O)C2(CCC2)NC(=O)[C@@H]2C[C@@H](OCC3CC3)CN2C(=O)[C@H](CCc2cc(F)c(C(F)(F)F)c(F)c2)NC(=O)CN(C)C(=O)[C@H](Cc2ccc(C(F)(F)F)cc2)N2CCCCC[C@@H](C2=O)N(C)C(=O)CN(C)C1=O [PP1005],A (a compound having 10 or more and less than 20 is denoted as A),A (a compound having 10 or more and less than 20 is denoted as A),1.1,–,–,–,–,–
CCO[C@@H]1C[C@H]2C(=O)NC3(CCC3)C(=O)N(C)[C@@H](C3CCCC3)C(=O)N(C)[C@H](C(=O)N(C)C)CC(=O)N(C)[C@@H](Cc3cccc(C)c3)C(=O)N[C@@H]([C@@H](C)CC)C(=O)N(C)CC(=O)N(C)[C@H]3CCCCCN(C3=O)[C@@H](Cc3ccc(C(F)(F)F)cc3)C(=O)N(C)CC(=O)N[C@@H](CCc3cc(F)c(C(F)(F)F)c(F)c3)C(=O)N2C1 [PP0942],B (a compound having 3 or more and less than 10 is denoted as B),B (a compound having 3 or more and less than 10 is denoted as B),0.99,–,–,–,–,–
CCCN1C(=O)CN(C)C(=O)CN(CC)C(=O)[C@H]([C@@H](C)CC)NC(=O)[C@H](CC(C)C)N(C)C(=O)C[C@@H](C(=O)N2CCOCC2)N(C)C(=O)[C@H](C2CCCC2)N(C)C(=O)C2(CCCC2)NC(=O)CN(C)C(=O)[C@H](CCc2ccc(C(F)(F)F)c(Cl)c2)NC(=O)CN(C)C(=O)[C@@H]1Cc1ccc(C(F)(F)F)cc1 [PP0300] ([NMeL]I[NEtG][Sar][NPrPhe(4-CF3)][Sar][hPhe(3-Cl-4-CF3)][Sar][Ac5c][NMeGly(cPent)][NMeD]-Morpholide; lactam N-11),B (a compound having 3 or more and less than 10 is denoted as B),C (A compound having a KD ratio of 0.1 or more and less than 3 is denoted as C),–,1.4,–,–,–,–
CCO[C@@H]1C[C@H]2C(=O)NC3(CCCC3)C(=O)N(C)[C@@H](C3CCCC3)C(=O)N(C)[C@H](C(=O)N(C)C)CC(=O)N(C)[C@@H](CC(C)C)C(=O)N[C@@H]([C@@H](C)CC)C(=O)N(C)CC(=O)N(C)[C@H]3C/C=C\CCN(C3=O)[C@@H](Cc3ccc(C)cc3)C(=O)N(C)CC(=O)N[C@@H](CCc3ccc(C(F)(F)F)c(Cl)c3)C(=O)N2C1 [PP2195],A (a compound having 10 or more and less than 20 is denoted as A),A (a compound having 10 or more and less than 20 is denoted as A),0.096,–,–,–,–,–
CC[C@H](C)[C@@H]1NC(=O)[C@H](CC(C)C)N(C)C(=O)C[C@@H](C(=O)N2CCOCC2)N(C)C(=O)[C@H](C2CCCC2)N(C)C(=O)C2(CCCC2)NC(=O)[C@@H]2CCCN2C(=O)[C@H](CCc2ccc(C(F)(F)F)c(Cl)c2)NC(=O)CN(C)C(=O)[C@H](Cc2ccc(C)cc2)N(CCOC)C(=O)CN(C)C(=O)CN(C)C1=O [PP0104] ([NMeL]I[Sar][Sar][X35][Sar][hPhe(3-Cl-4-CF3)]P[Ac5c][NMeGly(cPent)][NMeD]-Morpholide; lactam N-11),B (a compound having 3 or more and less than 10 is denoted as B),C (A compound having a KD ratio of 0.1 or more and less than 3 is denoted as C),–,0.25,–,–,–,–
CCO[C@@H]1C[C@H]2C(=O)NC3(CC(C)(C)C3)C(=O)N(C)[C@@H](C3CCCC3)C(=O)N(C)[C@H](C(=O)N(C)CC)CC(=O)N(C)[C@@H](CC)C(=O)N[C@@H]([C@@H](C)CC)C(=O)N(C)CC(=O)N(C)[C@H]3C/C=C\CCN(C3=O)[C@@H](Cc3ccc(C(F)(F)F)cc3)C(=O)N(C)CC(=O)N[C@@H](CCc3ccc(C(F)(F)F)c(Cl)c3)C(=O)N2C1 [PP2823],–,–,–,0.13,A (a compound having 10 or more and less than 20 is denoted as A),A (a compound having 10 or more and less than 20 is denoted as A),–,–
CCO[C@@H]1C[C@H]2C(=O)NC3(CCCC3)C(=O)N(C)[C@@H](C3CCCC3)C(=O)N(C)[C@H](C(=O)N(C)C)CC(=O)N(C)[C@@H](C)C(=O)N[C@@H]([C@@H](C)CC)C(=O)N(C)CC(=O)N(C)[C@H]3CCCCN(C3=O)[C@@H](Cc3ccc(C(F)(F)F)cc3)C(=O)N(C)CC(=O)N[C@@H](CCc3cc(F)c(C(F)(F)F)c(F)c3)C(=O)N2C1 [PP0586],–,–,–,0.01,–,–,C (A compound having a KD ratio of 0.1 or more and less than 3 is denoted as C),B (a compound having 3 or more and less than 10 is denoted as B)
CCO[C@@H]1C[C@H]2C(=O)NC3(CCC3)C(=O)N(C)[C@@H](C3CCCC3)C(=O)N(C)[C@H](C(=O)N(C)C)CC(=O)N(C)[C@@H](CC)C(=O)N[C@@H]([C@@H](C)CC)C(=O)N(C)CC(=O)N(C)[C@H]3CCCCCN(C3=O)[C@@H](Cc3ccc(C(F)(F)F)cc3)C(=O)N(C)CC(=O)N[C@@H](CCc3cc(F)c(C(F)(F)F)c(F)c3)C(=O)N2C1 [PP0663],–,–,–,0.28,–,–,B (a compound having 3 or more and less than 10 is denoted as B),B (a compound having 3 or more and less than 10 is denoted as B)
CCC[C@H]1C(=O)N[C@@H]([C@@H](C)CC)C(=O)N(C)CC(=O)N(C)[C@H]2C/C=C\CCN(C2=O)[C@@H](Cc2ccc(C(F)(F)F)cc2)C(=O)N(C)CC(=O)N[C@@H](CCc2ccc(C(F)(F)F)c(Cl)c2)C(=O)N2CCCCC[C@H]2C(=O)NC2(CC(C)(C)C2)C(=O)N(C)[C@@H](C(CC)CC)C(=O)N(C)[C@H](C(=O)N(C)C)CC(=O)N1C [PP2964],–,–,–,0.85,AA (a compound having 20 or more is denoted as AA),A (a compound having 10 or more and less than 20 is denoted as A),–,–
CCO[C@@H]1C[C@H]2C(=O)NC3(CCC3)C(=O)N(C)[C@@H](C3CCCC3)C(=O)N(C)[C@H](C(=O)N3CCOCC3)CC(=O)N(C)[C@@H](CC(C)C)C(=O)N[C@@H]([C@@H](C)CC)C(=O)N(C)CC(=O)N(C)[C@H]3CCCCCN(C3=O)[C@@H](Cc3ccc(F)cc3Cl)C(=O)N(C)CC(=O)N[C@@H](CCc3cc(F)c(C(F)(F)F)c(F)c3)C(=O)N2C1 [PP0918],B (a compound having 3 or more and less than 10 is denoted as B),B (a compound having 3 or more and less than 10 is denoted as B),0.4,–,–,–,–,–
CC[C@H](C)[C@@H]1NC(=O)[C@H](C)N(C)C(=O)C[C@@H](C(=O)N2CCOCC2)N(C)C(=O)[C@H](C2CCCC2)N(C)C(=O)C2(CCCC2)NC(=O)[C@@H]2CCCN2C(=O)[C@H](CCc2ccc(C(F)(F)F)c(Cl)c2)NC(=O)CN(C)C(=O)[C@H](Cc2ccc(C)cc2)N(CC)C(=O)CN(C)C(=O)CN(C)C1=O [PP0031] ([NMeA]I[Sar][Sar][NEtPhe(4-Me)][Sar][hPhe(3-Cl-4-CF3)]P[Ac5c][NMeGly(cPent)][NMeD]-Morpholide; lactam N-11),B (a compound having 3 or more and less than 10 is denoted as B),C (A compound having a KD ratio of 0.1 or more and less than 3 is denoted as C),–,0.18,–,–,–,–
CC[C@H](C)[C@@H]1NC(=O)[C@@H]2CCC/C=C/c3ccc(cc3)C[C@@H](C(=O)N(C)CC(=O)N[C@@H](CCc3ccc(Cl)c(Cl)c3)C(=O)N3C[C@H](OC(C)C)C[C@H]3C(=O)NC3(CC(C)(C)C3)C(=O)N(C)[C@@H](C3CCCC3)C(=O)N(C)[C@H](C(=O)N3CCCC3)CC(=O)N2C)N2CC/C=C\C[C@@H](C2=O)N(C)C(=O)CN(C)C1=O [PP2596],–,–,–,0.16,A (a compound having 10 or more and less than 20 is denoted as A),A (a compound having 10 or more and less than 20 is denoted as A),–,–
"CCCN1C(=O)CN(C)C(=O)[C@@H]2CCN2C(=O)[C@H]([C@@H](C)CC)NC(=O)[C@H](CC(C)C)N(C)C(=O)C[C@@H](C(=O)N(C)C)NC(=O)[C@H](C2CCCC2)N(C)C(=O)C2(CCCC2)NC(=O)[C@@H]2CC(F)(F)CN2C(=O)[C@H](CCc2ccc(C(F)(F)F)c(Cl)c2)NC(=O)CN(C)C(=O)[C@@H]1Cc1ccc(C(F)(F)F)cc1 [PP0375] ([NMeL]I[Aze][Sar][NPrPhe(4-CF3)][Sar][hPhe(3-Cl-4-CF3)][Pro(4,4-F2)][Ac5c][NMeGly(cPent)]D-NMe2; lactam N-11)",B (a compound having 3 or more and less than 10 is denoted as B),B (a compound having 3 or more and less than 10 is denoted as B),–,2.3,–,–,–,–
